In patent US11497813B2, “Bortezomib conjugates and methods using same” (Frank EBETINO et al., priority 2015, dated 2022):

System: UPS activation
Experiment: Ub^G76V-GFP reporter cells (GFP+ cells) in osteoclast cultures and on pre-incubated bone slices
Format: cell-based, mouse
Conditions: BM cells from Ub^G76V-GFP mice on bone slices pre-incubated with compound
Experimental: FIG. 5A is a scheme of an exemplary synthesis of compound BP-Btz1. FIG. 5B is a series of images of bone slices pre-incubated with 1 μM BP-Btz1, Btz, or bisphosphonate (BP) overnight. Drug solutions were removed and bone slices were washed with PBS extensively. […] (BM) cells from UB^G76V-GFP mice were cultured on bone slices in the presence of M-CSF and RANKL for 9 days. Top images (a): GFP^+ cells were observed under a fluorescence microscope and GFP signal intensity was quantified. Middle images (b): bone slices were fixed and subjected to TRAP staining for osteoclasts (OCs). OC #/slice were counted. Bottom images (c): cells were removed from slices. Toluidine blue staining was performed and pit areas/slice were counted. FIG. 5C is a series of images of murine BM cells cultured and stained for ALP. FIG. 5D is a series of images of human MSCs cultured and stained for ALP. Murine BM cells and human MSCs were cultured in the OB-inducing medium plus different concentrations of BP-Btz1 or Btz for 4 or 6 days, respectively. Cells were stained for ALP. The ALP^+ areas were measured by Image J. *P<0.05 vs. Btz-treated cells.
1. Ub^G76V-GFP mice in B6 background (Stock #008111, Jax lab) are generated using previously described methods (Lindsten et al., 2003, Nat. Biotech. 21:897-902). The Ub^G76V-GFP transgene was designed with a chicken beta-actin promoter and CMV immediate early enhancer upstream of a GFP fused to a mutant ubiquitin moiety (Ub^G76V), a constitutively active proteasome degradation signal. Following proteasome inhibitor administration, Ub^G76V accumulates and GFP fluorescence is readily apparent. GFP^+ OCs were detected at 4 and 8 hrs after adding Btz to OC cultures, which disappeared at 24 hrs. […] 2. OC formation and resorption assays and data analyses are performed as described herein (FIG. 4) and using previously described methods (Zhang et al., 2014, J. Clin. Invest. 124:3200-3214; Xiu et al., 2014, J. Clin. Invest. 124:297-310). […] The number and area of OCs and resorption pits are assessed. The appearance, intensity and distribution of GFP^+ cells on bone slices and plastic surrounding bone slices during OC formation is observed and recorded. 3. OB differentiation. Third passages of BM stromal cells are used as MPCs, as previously described (Shu et al., 2013, J. Bone Min. Res. 28:1925-1935; Zhang et al., 2014, J. Clin. Invest. 124:3200-3214). MPCs are cultured on plastic plates in OB-inducing medium±BP-Btz conjugates, Btz or BP (0.1-100 nM) for 1-3 wks. Plates are subjected to alkaline phosphatase (ALP) and alizarin red staining, and qPCR analyses. Area of ALP^+ and mineralized bone nodule, and the expression levels of OB marker genes (ALP, osteocalcin, Runx2) are measured. GFP^+ cells during OB differentiation are observed as in OCs. In a parallel experiment, human MSCs (from Lonza) are treated with BP-Btz, Btz, or BP in OB-inducing medium and their effects examined on OB differentiation as show in FIGS. 5C and 5D. 4. Western blot/Ub assays. OCPs or MPCs are treated with a preferred dose of leading BP-Btz, Btz and BP. OCP lysates are subjected to Western blot using α-NF-κB members and TRAF6 Abs. OB lysates are subjected to Western blot with α-ubiquitin, Runx2, or JunB Abs, and Ub assays using UbiQapture matrix (Biomol) to pull down Ub-proteins followed by α-Runx2 and JunB Abs using previously described methods (Zhao et al., 2010, J. Bone Min. Res. 25:1246-1256; Zhao et al., 2011, Stem cells 29:1601-1610).

NCC(P(=O)(O)O)P(=O)(O)O [BP]
GFP+ cells on pre-incubated bone slices: not
